Test results reported in patent publication US20180051017A1, “AGENT FOR TREATMENT OF SCHIZOPHRENIA” (Sumitomo Dainippon Pharma Co., Ltd., priority 2002, published 2018).
Counter-ions that a name gives are not always drawn.

System: patients with schizophrenia in the acute exacerbation phase
Assay: First stage phase II clinical trial: safety (adverse events, serious adverse events, side effects, ECG, laboratory tests)
Assay type: in vivo, human
Description: According to the procedures as shown in Table 1 as described below, the placebo-controlled double blind experiment was done on 149 patients with schizophrenia in the acute exacerbation phase at 15 facilities in USA. The efficacy and safeness were studied when SM-13496 at a dose of 40 mg or 120 mg, or a placebo was orally administered once a day for 6 weeks after placebo washout.

[1] = 120 mg orally once a day for 6 weeks, 49 subjects

O=C1[C@@H]2[C@@H]3CC[C@@H](C3)[C@@H]2C(=O)N1C[C@@H]1CCCC[C@H]1CN1CCN(c2nsc3ccccc23)CC1 [SM-13496, (1R,2S,3R,4S)-N-[(1R,2R)-2-[4-(1,2-benzoisothiazol-3-yl)-1-piperazinyl-methyl]-1-cyclohexylmethyl]-2,3-bicyclo[2.2.1]heptanedicarboximide hydrochloride]
Number of subjects showing serious adverse events (%) [1]: 3 (6) number of subjects (%) | Number of subjects who drop out from the trial due to adverse events (%) [1]: 6 (12) number of subjects (%) | Occurrence of adverse event: Akathisia (120 mg, 6 weeks, 49 subjects): 7 (14) number of subjects (%) | Occurrence of adverse event: Digestive disturbance (120 mg, 6 weeks, 49 subjects): 2 (4) number of subjects (%) | Occurrence of adverse event: Drowsiness (120 mg, 6 weeks, 49 subjects): 5 (10) number of subjects (%) | Occurrence of adverse event: Exacerbation of schizophrenia (120 mg, 6 weeks, 49 subjects): 1 (2) number of subjects (%) | Occurrence of adverse event: Free-floating vertigo (excluding rotatory vertigo) (120 mg, 6 weeks, 49 subjects): 5 (10) number of subjects (%) | Occurrence of adverse event: Headache (120 mg, 6 weeks, 49 subjects): 3 (6) number of subjects (%) | Occurrence of adverse event: Nausea (120 mg, 6 weeks, 49 subjects): 11 (22) number of subjects (%) | Occurrence of adverse event: Suppression (120 mg, 6 weeks, 49 subjects): 7 (14) number of subjects (%) | Occurrence of serious adverse event: Exacerbation of paranoia (120 mg, 6 weeks, 49 subjects): 0 (0) number of subjects (%) | Occurrence of serious adverse event: Exacerbation of schizophrenia (120 mg, 6 weeks, 49 subjects): 1 (2) number of subjects (%) | Occurrence of serious adverse event: Paranoid schizophrenia (120 mg, 6 weeks, 49 subjects): 1 (2) number of subjects (%) | Occurrence of serious adverse event: Psychosis aggravated (120 mg, 6 weeks, 49 subjects): 0 (0) number of subjects (%) | Occurrence of side effects (%) (120 mg, 6 weeks, 49 subjects): 35 (71) number of subjects (%) | Serious adverse events: Total (%) (120 mg, 6 weeks, 49 subjects): 2 (4) number of subjects (%) | Side effect: Abdominal pain (Gastroenteric disturbance) (120 mg, 6 weeks, 49 subjects): 0 (0) number of subjects (%) | Side effect: Abnormal electrocardiogram (Laboratory assay) (120 mg, 6 weeks, 49 subjects): 0 (0) number of subjects (%) | Side effect: Abnormal liver function tests (Laboratory assay) (120 mg, 6 weeks, 49 subjects): 1 (2) number of subjects (%) | Side effect: Agitation (Mental disturbance) (120 mg, 6 weeks, 49 subjects): 1 (2) number of subjects (%) | Side effect: Agitation aggravated (Mental disturbance) (120 mg, 6 weeks, 49 subjects): 2 (4) number of subjects (%) | Side effect: Akathisia (Nervous system disorder) (120 mg, 6 weeks, 49 subjects): 7 (14) number of subjects (%) | Side effect: Akathisia aggravated (Nervous system disorder) (120 mg, 6 weeks, 49 subjects): 0 (0) number of subjects (%) | Side effect: Anarthria (Nervous system disorder) (120 mg, 6 weeks, 49 subjects): 1 (2) number of subjects (%) | Side effect: Anorexia (Metabolic disturbances and nutritional disturbance) (120 mg, 6 weeks, 49 subjects): 0 (0) number of subjects (%) | Side effect: Anxiety aggravated (Mental disturbance) (120 mg, 6 weeks, 49 subjects): 0 (0) number of subjects (%) | Side effect: Articular rigidity (Musculoskeletal system and connective tissue disorder) (120 mg, 6 weeks, 49 subjects): 0 (0) number of subjects (%) | Side effect: Blurred vision (Ocular disturbance) (120 mg, 6 weeks, 49 subjects): 1 (2) number of subjects (%) | Side effect: Breathing difficulty (Disturbance in respiratory organ, chest and mediastinum) (120 mg, 6 weeks, 49 subjects): 1 (2) number of subjects (%) | Side effect: Cervical rigidity (Musculoskeletal system and connective tissue disorder) (120 mg, 6 weeks, 49 subjects): 0 (0) number of subjects (%) | Side effect: Cogwheel rigidity (Nervous system disorder) (120 mg, 6 weeks, 49 subjects): 1 (2) number of subjects (%) | Side effect: Constipation (Gastroenteric disturbance) (120 mg, 6 weeks, 49 subjects): 0 (0) number of subjects (%) | Side effect: Decrease in appetite (Metabolic disturbances and nutritional disturbance) (120 mg, 6 weeks, 49 subjects): 1 (2) number of subjects (%) | Side effect: Diarrhea (Gastroenteric disturbance) (120 mg, 6 weeks, 49 subjects): 0 (0) number of subjects (%) | Side effect: Drowsiness (Nervous system disorder) (120 mg, 6 weeks, 49 subjects): 5 (10) number of subjects (%) | Side effect: Dry eye (Ocular disturbance) (120 mg, 6 weeks, 49 subjects): 0 (0) number of subjects (%) | Side effect: Dry mouth (Gastroenteric disturbance) (120 mg, 6 weeks, 49 subjects): 0 (0) number of subjects (%) | Side effect: Dyspepsia (Gastroenteric disturbance) (120 mg, 6 weeks, 49 subjects): 2 (4) number of subjects (%) | Side effect: Dystonic reaction (Nervous system disorder) (120 mg, 6 weeks, 49 subjects): 0 (0) number of subjects (%) | Side effect: Exacerbation of insomnia (Mental disturbance) (120 mg, 6 weeks, 49 subjects): 1 (2) number of subjects (%) | Side effect: External otitis (Infection and parasitosis) (120 mg, 6 weeks, 49 subjects): 0 (0) number of subjects (%) | Side effect: Extrapyramidal disease (Nervous system disorder) (120 mg, 6 weeks, 49 subjects): 3 (6) number of subjects (%) | Side effect: Fatigue (Total disability and local condition) (120 mg, 6 weeks, 49 subjects): 1 (2) number of subjects (%) | Side effect: Fatigue aggravated (Total disability and local condition) (120 mg, 6 weeks, 49 subjects): 0 (0) number of subjects (%) | Side effect: Flatulence (Gastroenteric disturbance) (120 mg, 6 weeks, 49 subjects): 0 (0) number of subjects (%) | Side effect: Flushing (Vascular diseases) (120 mg, 6 weeks, 49 subjects): 0 (0) number of subjects (%) | Side effect: Free-floating vertigo (excluding rotatory vertigo) (Nervous system disorder) (120 mg, 6 weeks, 49 subjects): 5 (10) number of subjects (%) | Side effect: Frequent urination (Renal Injury and urinary disorder) (120 mg, 6 weeks, 49 subjects): 0 (0) number of subjects (%) | Side effect: Glossoplegia (Nervous system disorder) (120 mg, 6 weeks, 49 subjects): 0 (0) number of subjects (%) | Side effect: Headache (Nervous system disorder) (120 mg, 6 weeks, 49 subjects): 1 (2) number of subjects (%) | Side effect: Heavy feeling (Musculoskeletal system and connective tissue disorder) (120 mg, 6 weeks, 49 subjects): 0 (0) number of subjects (%) | Side effect: Hot flashes (Vascular diseases) (120 mg, 6 weeks, 49 subjects): 1 (2) number of subjects (%) | Side effect: Hot sensation (Total disability and local condition) (120 mg, 6 weeks, 49 subjects): 0 (0) number of subjects (%) | Side effect: Increase in creatine phosphokinase level in the blood (Laboratory assay) (120 mg, 6 weeks, 49 subjects): 0 (0) number of subjects (%) | Side effect: Increase in prolactin level in the blood (Laboratory assay) (120 mg, 6 weeks, 49 subjects): 1(2) number of subjects (%) | Side effect: Increase in total protein (Laboratory assay) (120 mg, 6 weeks, 49 subjects): 0 (0) number of subjects (%) | Side effect: Insomnia (Mental disturbance) (120 mg, 6 weeks, 49 subjects): 1 (2) number of subjects (%) | Side effect: Laryngopharynx pain (Disturbance in respiratory organ, chest and mediastinum) (120 mg, 6 weeks, 49 subjects): 0 (0) number of subjects (%) | Side effect: Loose stools (Gastroenteric disturbance) (120 mg, 6 weeks, 49 subjects): 1 (2) number of subjects (%) | Side effect: Melalgia (Musculoskeletal system and connective tissue disorder) (120 mg, 6 weeks, 49 subjects): 1 (2) number of subjects (%) | Side effect: Muscle stiffness (Musculoskeletal system and connective tissue disorder) (120 mg, 6 weeks, 49 subjects): 1 (2) number of subjects (%) | Side effect: Myalgic pain (Musculoskeletal system and connective tissue disorder) (120 mg, 6 weeks, 49 subjects): 1 (2) number of subjects (%) | Side effect: Nausea (Gastroenteric disturbance) (120 mg, 6 weeks, 49 subjects): 9 (18) number of subjects (%) | Side effect: Nightmare (Mental disturbance) (120 mg, 6 weeks, 49 subjects): 1 (2) number of subjects (%) | Side effect: Palpitation (Heart problems) (120 mg, 6 weeks, 49 subjects): 1 (2) number of subjects (%) | Side effect: Parotiditis (Infection and parasitosis) (120 mg, 6 weeks, 49 subjects): 0 (0) number of subjects (%) | Side effect: Polyuria (Renal Injury and urinary disorder) (120 mg, 6 weeks, 49 subjects): 0 (0) number of subjects (%) | Side effect: Pruritus (Disturbance in Skin and Hypodermis) (120 mg, 6 weeks, 49 subjects): 0 (0) number of subjects (%) | Side effect: Psychosis aggravated (Mental disturbance) (120 mg, 6 weeks, 49 subjects): 2 (4) number of subjects (%) | Side effect: Restlessness (Mental disturbance) (120 mg, 6 weeks, 49 subjects): 1 (2) number of subjects (%) | Side effect: Salivary hypersecretion (Gastroenteric disturbance) (120 mg, 6 weeks, 49 subjects): 0 (0) number of subjects (%) | Side effect: Sinus tachycardia (Heart problems) (120 mg, 6 weeks, 49 subjects): 1 (2) number of subjects (%) | Side effect: Sleepiness (Total disability and local condition) (120 mg, 6 weeks, 49 subjects): 2 (4) number of subjects (%) | Side effect: Suppression (Nervous system disorder) (120 mg, 6 weeks, 49 subjects): 7 (14) number of subjects (%) | Side effect: Tinea pedis (Infection and parasitosis) (120 mg, 6 weeks, 49 subjects): 1 (2) number of subjects (%) | Side effect: Tongue disturbance (Gastroenteric disturbance) (120 mg, 6 weeks, 49 subjects): 0 (0) number of subjects (%) | Side effect: Tremor (Nervous system disorder) (120 mg, 6 weeks, 49 subjects): 3 (6) number of subjects (%) | Side effect: Trismus (Nervous system disorder) (120 mg, 6 weeks, 49 subjects): 1 (2) number of subjects (%) | Side effect: Urinary tract infection (Infection and parasitosis) (120 mg, 6 weeks, 49 subjects): 0 (0) number of subjects (%) | Side effect: Vomiting (Gastroenteric disturbance) (120 mg, 6 weeks, 49 subjects): 3 (6) number of subjects (%) | Side effect: Weight loss (Laboratory assay) (120 mg, 6 weeks, 49 subjects): 2 (4) number of subjects (%) | Akathisia (adverse event) (120 mg-treated group): 14% | Digestive disturbance compared to the placebo-treated group (120 mg-treated group): less observed | Exacerbation of schizophrenia (adverse event) (120 mg-treated group): 2% | Nausea compared to the other groups (120 mg-treated group): more observed | Ratio of the subjects showing suppression (120 mg-treated group): 14% | Serious adverse events (120 mg-treated group): 2 cases | Change in body temperature, respiration rate, funduscopic examination and slit-lamp microscopy (SM-13496-treated groups): no clinically significant change | Occurrence of dystonic reaction (SM-13496-treated groups): less than 4% | Prolactin level in the blood (SM-13496-treated groups): moderate increase | Number of subjects who dropped out from the trial due to the adverse events compared to placebo (both groups treated by two doses): higher | Occurrence of the adverse events compared to placebo (groups treated by SM-13496): the same as that in the placebo-treated group
